Assay results from US20160009769A1, “PROCESSES FOR ISOLATING SALICYCLIC ACID RECEPTORS” (NEOPRO LABS, LLC, priority 2013, published 2016).

Assays:
SARP [1] = test: Dynamic light scattering (DLS) of SARP micelles/gel in water; assay type: biochemical, Sauromatum; settings: for micelle size after 20 min: 20 min after addition to 0.1 pM SARP in water; for micelle size upon addition: added to 0.1 pM SARP in water
Procedure: Organized droplets are seen under the light microscope when SARP solution is spread on a glass slide. Upon addition of DTT or mercaptoethanol the micelle size reduces to ˜300 nm, and after 20 min, the size increases back to ˜800 nm. […] The swelling and shrinking were discontinuous. Addition of 10 μM ATP stops the oscillation for ˜30 min. and then it is resumed at the same kinetics.
FIG. 11. SARP was purified from D-day appendices using RP-HPLC-ESI-MS. Purified SARP was solubilized in distilled water and analyzed using DLS. […] T, period.
Upon addition of water to the dry protein at a final concentration of 0.1 pM, micelles formed with a uniform size of ˜800 nm (FIG. 5). Upon addition of DTT or β-mercaptoethanol the micelle size reduced to ˜300 nm, and after 20 min, the size increased back to ˜800 nm. […] Addition of 10 μM ATP stopped the oscillation for ˜30 min. and then it resumed with the same kinetics.

SARP [2] = test: UV spectra of SARP in the presence of ligands; assay type: biochemical; settings: 1 pM SARP
Procedure: FIG. 14. UV spectra of SAR in the presence of 2,6-DHBA. Freshly dissolved SAR was incubated with 2,6-DHBA and samples were taken for spectral analysis at the same time when the effect of SA on SAR was determined. The data present acquired spectra after baseline subtraction of each compound added to SAR. Every 3 min. after the addition of SAR a spectrum was recorded. A, The first 6 spectra were downward relative to the baseline (solid line). The following spectra were upward (broken line). (ME, β-mercaptoethanol).
FIG. 15. UV spectra of SAR in the presence of GTP, SA, and ATP. Freshly dissolved SARP was incubated with GTP and samples were taken for spectral analysis. Later, ME and SA were added to the sample, and finally ATP was added to the sample. The data present acquired spectra after baseline subtraction of each compound added to SARP. […] (ME, β-mercaptoethanol).
Thus, according to certain related embodiments, UV absorbance spectra of SARP may fluctuate over time when absorbance measurements are collected over a range of wavelengths and at a plurality of time points, if a salicylate-related compound is present or, under other chemical environments as described below. […] In certain preferred embodiments the change may be detected at wavelengths from (inclusively) 190 nm to 280 nm, where it will be appreciated that selection of a suitable wavelength may vary as a function of several factors including protein concentration, solution composition (e.g., absorbance properties of buffers, salts, etc.), instrument sensitivity, and other related attributes of a spectroscopic configuration.

SARP [3] = test: ESI-MS charge state distribution (conformation) of SARP from Sauromatum appendix after treatment with salicylates; set-up: species or system Sauromatum guttatum
Excerpt: It is an aspect of the present invention to provide a method of detection and characterization of SARP using RP-HPLC/ESI-MS. This is accomplished using on-line splitting of 5 to 10% of the effluent from the UV detector to a Micromass Quattro II tandem quadrupole MS fitted with an ESI source (Waters Inc.) via a variable splitter allowing manual fraction collection. This instrument is operated in a positive ESI mode at a probe tip voltage of 3.6 kV and a cone voltage of 45 V. The source and nebulizer temperatures are maintained at 150 and 400° C., respectively, using N2 as both nebulizing and bath gas. The instrument is calibrated using water clusters over the range of 100-2400 Da with data acquisition is carried out from m/z 500 to 2000 in the continuum-scanning mode at 450 Da sec^1. Instrument tuning, mass calibration, data acquisition, processing and display are accomplished using MassLynx™ and MaxEnt™ software (Waters Inc.). This procedure provided a protein molecular mass with an accuracy of ˜0.1%.
FIG. 13. […] The ESI-MS spectra is different that that of ASA and SA. It is more expanded, lower m/z values.
Monomeric SARP undergoes a large-scale conformation transition from one state to another in the Sauromatum appendix during development. […] The concentration of SA in the appendix tissue is ˜1 μg/g fresh wt^4, and it is equivalent to ˜7 μM, within the range of this experiment.

Sauromatum appendix = settings: cited from earlier work; for triggering of heat production: S. guttatum
SARP [4] = test: Reduction of tetrazolium salts by SARP in the presence of pyridine; assay type: biochemical; settings: tetrazolium salt 4 μM, pyridine 30%, 5 min at room temperature; mean of two determinations
Excerpt: Additionally and as described herein, SARPs are capable of unidirectionally transferring one or two electrons to an electron acceptor such as 3-(4,5-dimethyl thiazol-2-yl-(2,5-diphenyl) tetrazolium bromide (MTT), nitro blue tetrazolium (NBT) or neotetrazolium chloride (Neo-NBT), or to ferricytochrome c.

SARP [5] = test: Effect of SA on the levels of SARP in the Sauromatum appendix; set-up: species or system Sauromatum guttatum; settings: D-1 appendix placed in 10 μM SA, protein extracted next morning; control in water 160
Procedure: In certain embodiments SARP is isolated using organic solutions. Tissues are ground n a juicer grinder in an organic extraction solution containing 50% IP, 2 mM β-mercaptoethanol, 0.5 mM EDTA, 5 mM butylated hydroxy-toluene, 0.1% tocopherol acetate, 0.1% polyvinylpoly-pyrrolidone (insoluble, Sigma-Aldrich Corp.) in 40 mM imidazole/HCl buffer, pH 7.0, at a weight/volume ratio of 1 g of tissue per 5 ml of extraction solution. The extract is centrifuged at 15,000 g for 10 min and the pellet is discarded. A strong cationic resin (DOWEX X-50, Sigma-Aldrich Corp.) is added to the supernatant (30 mg resin per ml) and stirred for 2.5 h at 4° C. The mixture is then centrifuged at 30 g for 2 min, and the supernatant is discard. The Dowex resin is washed several times, first with the extraction solution and finally with distilled water until a clear wash is obtained. Subsequently, the resin is again washed 2 times with 0.15 M phosphate buffer, pH 7.0. […] The protein solution is dialyzed using a 12-14 kDa cut-off dialysis bag against 3 L of distilled water at 4° C., the water is changed twice during 24 h. The content of the dialysis bag is removed and centrifuged at 10,000 g for 15 min. The pellet is used for SARP purification.
In certain embodiments SARP is purified using a reversed-phase high-performance liquid chromatography (RP-HPLC) on-line to elecrosray ionization-mass spectromer (ESI-MS). […]

Human SARP = test: ESI-MS conformation of SARP purified from SK-N-SH cells treated with SA; assay type: cell-based; settings: SK-N-SH cells treated with 10 μM
Excerpt: The charge state distribution (CSD) of the human SARP is identical to its plant counterpart from the Sauromatum appendix during heat-production. […] This regulatory activity behaves as a metabolic switch that switching on and off heat-production. SARP can be a metabolic switch in the cytoplasm and mitochondria. […] However, if SA level fluctuates, SARP can be either in state B (compact) or state A (extanded) and consequently, can trigger oscillatory thermogenicity. In a more complex model, the cytoplasmic and the mitochondrial switch will have to be to be in state B. There are four possibilities for the output for both switches. When both switches are in states B, a singular event of heat-production occurs. Other options are cytoplasmic SARP in state A and mitochondrial SARP in either state A or B. Or, cytoplasmic SARP in state B and mitochondrial SARP in state A.
FIG. 16. Purification of SARP from SK-N-SH cells using perfusion chromatography. SARP was purified using RP-HPLC/ESI-MS. TIC chromatogram with solvent gradient overlay (A). Ion current chromatograms of m/z 1139 (B) and 1178, (C) corresponding to [M+30H]^30+ and […] charge states of the protein. Solvent A is 0.05% TFA in aqueous solution and solvent B is 0.05% aqueous TFA in ACN:IP at a ratio 2:1.
FIG. 17. Electrospray ionization mass spectrua of SARP from the SK-N-SH cells and Sauromatum appendix. […]

[6] = higher concentrations, 100 and 200 μM

**Q.** Which “micelle size after 20 min” value (SARP [1]) does the source give for `O[C@H](CS)[C@H](O)CS` (racemic) [DTT, dithiothreitol] here?
**A.** The value was ~800 nm.

**Q.** What about the “micelle size upon addition” value (SARP [1]) of the same compound?
**A.** Its value is ~300 nm.

**Q.** For `O=C(O)c1c(O)cccc1O` [2,6-DHBA, 2,6-dihydroxybenzoic acid], which “effect on UV spectrum of SARP” value (SARP [2]; incubation with NADH) is on record?
**A.** The value was “did not exert the same effect”.

**Q.** What about the “ESI-MS spectra of SARP compared with ASA and SA” value (SARP [3]; D-2 and D-3 appendix sections incubated overnight in 100 μM) of the same compound?
**A.** The value was “more expanded”.

**Q.** And the “conformational state of SARP” value (SARP [3]; [6])?
**A.** The value was “conformations that are more extended than state A”.

**Q.** What about the “triggering of heat production” value (Sauromatum appendix) of the same compound?
**A.** Its value is “can also trigger heat production”.

**Q.** With `O=C(O)c1ccc(O)c(O)c1` [3,4-DHBA, 3,4-dihydroxybenzoic acid] as the compound, how does the “effect on UV spectrum of SARP” value (SARP [2]; incubation with NADH) read?
**A.** Its value is “did not exert the same effect”.

**Q.** With `CC(=O)Oc1ccccc1C(=O)O` [ASA, aspirin] as the compound, how does the “triggering of heat production” value (Sauromatum appendix) read?
**A.** Its value is “can also trigger heat production”.

**Q.** Which “time the oscillation is stopped” value (SARP [1]; 10 μM added to oscillating SARP gel) does the source give for `Nc1ncnc2c1ncn2[C@@H]1O[C@H](COP(=O)(O)OP(=O)(O)OP(=O)(O)O)[C@@H](O)[C@H]1O` [ATP] here?
**A.** Its value is ~30 min.

**Q.** Which O.D.530 (SARP [4]) does the source give for `Cc1nc(-[n+]2nc(-c3ccccc3)nn2-c2ccccc2)sc1C.[Br-]` [MTT] here?
**A.** The O.D.530 was 0.17.

**Q.** Which O.D.530 (SARP [4]) does the source give for `COc1cc(-c2ccc(-n3nc(-c4ccccc4)n[n+]3-c3ccc([N+](=O)[O-])cc3)c(OC)c2)ccc1-n1nc(-c2ccccc2)n[n+]1-c1ccc([N+](=O)[O-])cc1` [NBT, nitro blue tetrazolium] here?
**A.** Its O.D.530 is 0.14.

**Q.** With `c1ccc(-c2nn(-c3ccccc3)[n+](-c3ccc(-c4ccc(-[n+]5nc(-c6ccccc6)nn5-c5ccccc5)cc4)cc3)n2)cc1` [NeoT, neotetrazolium chloride] as the compound, how does the O.D.530 (SARP [4]) read?
**A.** Its O.D.530 is 0.06.

**Q.** For `O=C(O)c1ccccc1O` [SA, salicylic acid], which “effect on UV spectrum of SARP” value (SARP [2]; incubation of SA and GTP and ATP) is on record?
**A.** Its value is “appearance of new bands from 197 to 230”.

**Q.** What about the “effect on UV spectrum of SARP” value (SARP [2]; incubation with NADH) of the same compound?
**A.** Its value is “a shift in a band from 197 to 230”.

**Q.** What about the “SARP (ng/g fresh wt.)” value (SARP [5]) of the same compound?
**A.** Its value is 30 ng/g fresh wt.

**Q.** What about the “conformation of human SARP” value (Human SARP) of the same compound?
**A.** Its value is “a shift to a much more compact conformation”.

**Q.** What about the “effect on micelle size” value (SARP [1]; 1 pM, molar ratio [SARP]/[SA]<0.1) of the same compound?
**A.** Its value is “immediately decreased the micelle size”.

**Q.** And the “period of gel expansion/shrinking oscillation” value (SARP [1]; after addition of 1 pM SA)?
**A.** Its value is 4 to 5 min.

**Q.** What about the “conformational state of SARP” value (SARP [3]; 10 μM applied to pre D-day appendices) of the same compound?
**A.** The value was “induced a transition from state A in which SA undetectable in the tissue to state B”.

**Q.** What about the “conformational state of SARP” value (SARP [3]; [6]) of the same compound?
**A.** The value was “conformations that are more extended than state A”.

**Q.** And the “temperature rise of appendix section” value (Sauromatum appendix; added on D-1 morning, the next morning, untreated section stays at ambient temperature)?
**A.** The value was “up to 32 °C”.

**Q.** For `OCCS` [β-mercaptoethanol], which “micelle size after 20 min” value (SARP [1]) is on record?
**A.** Its value is ~800 nm.

**Q.** What about the “micelle size upon addition” value (SARP [1]) of the same compound?
**A.** Its value is ~300 nm.
